Laboratory results as given in patent US20240124409A1, “GUAIANOLIDE SESQUITERPENE LACTONE DERIVATIVES AND PHARMACEUTICAL USE THEREOF” (NANJING UNIVERSITY OF CHINESE MEDICINE, priority 2021, published 2024).
Converted amounts (≈) assume the structure as drawn.

Columns and labels:
[1] = Stability in artificial gastric juice environment (HPLC); conditions: 37° C.
Procedure: The samples were dissolved in 500 μL of chromatographic methanol, into which were added 1500 μL of artificial gastric juice, mixed well and then dissolved completely by ultrasound. 50 μL of the above solutions were aspirated precisely, diluted by adding 200 μL of chromatographic methanol, filtered and analyzed by HPLC, wherein the HPLC analysis conditions were mobile phase: 65% methanol -35% water, flow rate: 0.8 mL/min, and column temperature: 25° C., and the initial peak areas were recorded. The above solutions were placed on a constant temperature water bath at 37° C., sampled at 8 h, 16 h and 24 h respectively, and analyzed by HPLC. By calculating the peak areas respectively, the stability data of the corresponding samples in artificial gastric juice environment at 8 h, 16 h and 24 h can be obtained.

Solubility test in water = type: physicochemical; conditions: thermodynamic from solid; deionized water, 37° C.
Procedure: Saturated solutions were formulated, filtered and analyzed by HPLC with a sample volume of 1 μL, 3 μL, 5 μL, 10 μL, 15 µL and 20 μL sequentially, and the standard curves of the corresponding compounds were drawn.
[…] of the above compounds were formulated, dissolved by ultrasound for 4 h, and placed on a water bath at 37° C. to stand for 1 h. The resulting unsaturated solutions were centrifuged. 30 μL of supernatants were removed, diluted by adding 200 μL of deionized water, and then filtered.

NLRP3 inflammasome = target: T1, NLRP3 inflammasome (Mus musculus, UniProt Q8R4B8); assay: Inhibition of LPS and ATP induced NLRP3 inflammasome activation in BMDMs (IL-1β level); type: cell-based, C57BL/6 mice; conditions: read-out: IC50, inhibitory effect on activation of NLRP3 inflammasome
T1 construct: endogenous in cells; host or cells: primary bone marrow-derived macrophages (BMDMs) from female C57BL/6 mice, differentiated with rmM-CSF
From the text: NLRP3 is an important pattern recognition receptor, that can form the NLRP3 inflammasome through the adaptor ASC and pro-caspase-1. After activation, the NLRP3 inflammasome can mediate the activation of caspase-1, thus promoting the maturation and secretion of IL-1β. In order to determine whether the prepared guaianolide sesquiterpene lactone Compounds 1-8 can inhibit the activation of the NLRP3 inflammasome, we used LPS and ATP to induce the activation of the NLRP3 inflammasome, and observed the effects of Compounds 1-8 on the IL-1β level caused by NLRP3 inflammasome activation.
C57BL/6 mice were sacrificed by cervical dislocation, and then soaked in 75% alcohol for 5-10 min. Subsequently, two hind legs of the mice were cut off with scissors. Next, the meat was removed, and the leg bones were left, which were then washed with PBS for three times. After severing the bone at both ends, a sterile syringe filled with cold serum-free RPMI 1640 medium was used to flush the bone marrow into a 15 mL centrifuge tube. Subsequently, the bone marrow was centrifuged at 1500 rpm for 5 min, and the supernatant was discarded. The residue was resuspended with 1 mL of erythrocyte lysate, blown repeatedly, and then stood for 7 min to lyse erythrocytes. After centrifugation at 1500 rpm for 5 min, the supernatant was discarded. The residue was resuspended with the RPMI 1640 medium containing 100 ng/ml of rmM-CSF, and then transferred to a 6-well culture plate for culture.
The BMDMs were seeded on 6-well cell culture plates and then treated with 100 ng/ml ultrapure LPS for 3 h. […] Subsequently, the cells were stimulated with 5 mM ATP for 45 min. The supernatants were collected into 1.5 mL EP tubes for subsequent detection of IL-1β level.

[2] = tested on: mouse acute liver injury model; assay: Mouse acute liver injury model (CCl4); type: in vivo, C57BL/6 mice
Procedure: The mice were randomly divided into 8 groups, one of which was randomly selected as the normal group, and the other 7 groups were the model group, the parent drug 1 (0.4 and 4 μmol/kg), the hydrochloride 22 (4 μmol/kg), and the fumarate 23 (0.4 and 4 μmol/kg) groups, respectively, with 6 mice in each group. In addition to the normal group injected with 10 mL olive oil/kg, the other mice were injected intraperitoneally with 0.5 mL CCl4+9.5 mL olive oil/kg weight, i.e., the ratio of CCl4 to olive oil was 1:19. […] The mice in the normal group and model group were administered intragastrically the same volume of the solvent 0.5% CMC-Na.
1 h after the last administration, blood was collected from the venous plexus of fundus oculi, stood at room temperature for 2 h, and centrifuged at 3000 rpm for 20 min. The serum was aspirated, aliquoted, and frozen at −70° C. for subsequent use. After blood collection, the mice were sacrificed by cervical dislocation, and the abdominal cavity was opened. The livers were taken out, and rinsed twice with pre-cooled PBS. The liver left lobe tissues of the mice were cut, and fixed with 4% paraformaldehyde for 24-48 h. The remaining tissues were frozen at −70° C. for subsequent use.
μL of each sample was taken for experiments. The levels of AST and ALT in the serum of mice were detected according to the operation manual. The absorbance value was detected at the wavelength of 510 nm by a microplate reader, and the sample concentration (U/L) was calculated according to the standard curve.
The extraction method of total RNA from tissues, cDNA synthesis and the PCR amplification method are the same as those in Example 4.

T1 sequence (Q8R4B8 whole entry): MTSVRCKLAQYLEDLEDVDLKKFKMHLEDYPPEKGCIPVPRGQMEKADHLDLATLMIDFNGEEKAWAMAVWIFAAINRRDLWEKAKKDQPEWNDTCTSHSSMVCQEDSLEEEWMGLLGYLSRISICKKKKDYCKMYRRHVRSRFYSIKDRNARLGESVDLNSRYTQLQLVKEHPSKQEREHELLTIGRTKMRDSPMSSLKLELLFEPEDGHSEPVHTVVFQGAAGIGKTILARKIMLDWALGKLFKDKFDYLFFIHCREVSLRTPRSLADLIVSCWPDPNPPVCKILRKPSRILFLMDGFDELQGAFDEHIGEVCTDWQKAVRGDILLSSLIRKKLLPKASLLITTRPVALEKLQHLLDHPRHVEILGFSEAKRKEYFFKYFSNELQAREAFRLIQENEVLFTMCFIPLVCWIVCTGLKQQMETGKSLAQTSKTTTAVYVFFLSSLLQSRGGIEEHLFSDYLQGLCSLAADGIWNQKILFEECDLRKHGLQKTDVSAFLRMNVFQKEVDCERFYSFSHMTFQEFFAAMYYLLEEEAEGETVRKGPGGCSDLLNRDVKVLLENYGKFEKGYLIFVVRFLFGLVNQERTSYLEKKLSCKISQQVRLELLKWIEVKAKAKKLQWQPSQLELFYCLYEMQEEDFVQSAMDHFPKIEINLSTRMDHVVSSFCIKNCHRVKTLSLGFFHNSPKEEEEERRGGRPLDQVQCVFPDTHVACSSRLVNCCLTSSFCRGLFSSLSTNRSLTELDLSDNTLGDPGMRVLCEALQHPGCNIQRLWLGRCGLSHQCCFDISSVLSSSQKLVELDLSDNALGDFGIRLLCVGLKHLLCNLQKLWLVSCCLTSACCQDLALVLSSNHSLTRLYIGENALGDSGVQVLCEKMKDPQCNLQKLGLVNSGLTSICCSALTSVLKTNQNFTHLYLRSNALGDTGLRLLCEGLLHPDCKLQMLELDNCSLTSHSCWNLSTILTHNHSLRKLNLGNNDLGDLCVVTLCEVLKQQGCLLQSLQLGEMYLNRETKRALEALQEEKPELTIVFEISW

Row | Non-degradation percentage at 8 h [1] | Non-degradation percentage at 16 h [1] | Non-degradation percentage at 24 h [1] | solubility (Solubility test in water) | IC50 (NLRP3 inflammasome) | Structure (SMILES) | Acta2 mRNA expression ([2]; liver, 400 μmol/kg) | Col1a1 mRNA expression ([2]; liver, 400 μmol/kg) | Tgfb1 mRNA expression ([2]; liver, 400 μmol/kg) | ALT ([2]; serum, 4 μmol/kg) | AST ([2]; serum, 400 μmol/kg)
1 | 90.92% | 86.62% | 78.26% | 0.0008 mg/mL (≈ 0.00327 mM) | < 40 nM | C=C1C(=O)O[C@@H]2[C@H]3C(C)=CC[C@]34C[C@]4(C)CC[C@@H]12 [Compound 2] | – | – | – | – | –
2 | 99.98% | 99.87% | 97.77% | 0.0355 mg/mL (≈ 0.121 mM) | < 40 nM | C=C1C(=O)O[C@H]2[C@H]1CC[C@@]1(C)C[C@]13C[C@@H](O)[C@@](C)(OC)[C@H]23 [Compound 3] | – | – | – | – | –
3 | 98.15% | 96.84% | 96.21% | 0.101 mg/mL (≈ 0.362 mM) | < 40 nM | C=C1C(=O)O[C@H]2[C@H]1CC[C@@]1(C)C[C@]13C[C@@H](O)[C@@](C)(O)[C@H]23 [Compound 4] | – | – | – | – | –
4 | 99.91% | 99.85% | 99.84% | 0.0259 mg/mL (≈ 0.0979 mM) | < 40 nM | C=C1C(=O)O[C@@H]2[C@@H]3[C@]4(CC[C@@]3(C)F)C[C@]4(C)CC[C@@H]12 [Compound 5] | – | – | – | – | –
5 | 99.89% | 96.80% | 95.72% | 0.00258 mg/mL (≈ 0.0106 mM) | < 40 nM | C=C1C(=O)O[C@@H]2C3=C(C)CC[C@]34C[C@]4(C)CC[C@@H]12 [Compound 6] | – | – | – | – | –
6 | 99.31% | 97.85% | 97.65% | 0.0177 mg/mL (≈ 0.0555 mM) | < 40 nM | C=C1C(=O)O[C@@H]2[C@@H]3[C@]4(CC[C@@]3(C)OC(=O)CC)C[C@]4(C)CC[C@@H]12 [Compound 7] | – | – | – | – | –
7 | 98.36% | 95.58% | 94.08% | 0.00852 mg/mL (≈ 0.0308 mM) | < 40 nM | C=C1C(=O)O[C@@H]2[C@@H]3[C@]4(CC[C@@]3(C)OC)C[C@]4(C)CC[C@@H]12 [Compound 8] | – | – | – | – | –
8 | – | – | – | 96.6 mg/mL (≈ 334 mM) | 40 to 80 nM | CC1=CC[C@@]23C[C@]2(C)CC[C@@H]2[C@H](OC(=O)[C@H]2CN(C)C)[C@@H]13 [Compound 24] | – | – | – | – | –
9 | – | – | – | 221 mg/mL (≈ 654 mM) | 40 to 80 nM | CO[C@]1(C)[C@H](O)C[C@@]23C[C@]2(C)CC[C@@H]2[C@H](OC(=O)[C@H]2CN(C)C)[C@@H]13 [Compound 25] | – | – | – | – | –
10 | – | – | – | 248 mg/mL (≈ 768 mM) | 40 to 80 nM | CN(C)C[C@@H]1C(=O)O[C@H]2[C@H]1CC[C@@]1(C)C[C@]13C[C@@H](O)[C@@](C)(O)[C@H]23 [Compound 26] | – | – | – | – | –
11 | – | – | – | 208 mg/mL (≈ 674 mM) | 40 to 80 nM | CN(C)C[C@@H]1C(=O)O[C@H]2[C@H]1CC[C@@]1(C)C[C@]13CC[C@@](C)(F)[C@H]23 [Compound 27] | – | – | – | – | –
12 | – | – | – | 120 mg/mL (≈ 416 mM) | 80 to 100 nM | CC1=CC[C@@]23C[C@]2(C)CC[C@H]2[C@H](CN(C)C)C(=O)O[C@@H]2C13 (some centres unmarked) [Compound 28] | – | – | – | – | –
13 | – | – | – | 195 mg/mL (≈ 535 mM) | 40 to 80 nM | CCC(=O)O[C@]1(C)CC[C@@]23C[C@]2(C)CC[C@@H]2[C@H](OC(=O)[C@H]2CN(C)C)[C@H]31 [Compound 29] | – | – | – | – | –
14 | – | – | – | – | – | COc1cc(C2Oc3cc([C@H]4Oc5cc(O)cc(O)c5C(=O)[C@@H]4O)ccc3OC2CO)ccc1O (some centres unmarked) [Silybin, reference compound] | 2.91 | 1.84 | 1.11 | 121.58 U/L | 301.45 U/L
15 | 68.91% | 65.42% | 57.86% | 44.8 mg/mL (≈ 195 mM) | – | C=C1CC[C@H]2C(=C)CC[C@H]3C(=C)C(=O)O[C@@H]3[C@@H]12 [dehydrocostus lactone, reference compound] | – | – | – | – | –
